In US9346769B2, “Tetrazolones as inhibitors of fatty acid synthase” (Infinity Pharmaceuticals, Inc., priority 2010, dated 2016):

Molecular target: T1, human FASN (Homo sapiens, UniProt P49327)
T1 construct: was purified from SKBR3 cells using procedures modified from those in Jayakumar et al; endogenous in cells; host or cells: SKBR3 human breast cancer cells (ATCC); Endogenous enzyme purified by ammonium sulfate precipitation and a mono Q column
Experiment: FASN NADPH Consumption Assay
Type: biochemical
Conditions: human FASN purified from SKBR3 cells; starred symbols
Method: Human FASN protein (SEQ ID NO. 1) was purified from SKBR3 cells using procedures modified from those in Jayakumar et al. PNAS 1995, 92:8695-8699. SKBR3 cells were obtained from ATCC and grown in DMEM high glucose medium supplemented with 10% FBS, 1 μg/mL bovine pancreas insulin, 100 U/mL penicillin and 100 µg/mL streptomycin. The confluent cells were trypsinized and washed three times with PBS buffer before frozen in liquid N2 and stored at −80° C. Frozen cells were thawed on ice and resuspended in lysis buffer (25 mM Tris-HCl, pH 7.0, 15 mM NaCl, 1 mM EDTA, and 1 mM DTT) with protease inhibitors. The cells were lysed by sonication, and the cell debris was removed by centrifugation at 20,000 rpm for 30 min. To the supernatant, neutralized saturated ammonium sulfate solution was added to a final concentration of 35%. The solution was left on ice for 1 hr, and the precipitated proteins were harvested by centrifugation at 20,000 rpm for 30 min. The proteins were redissolved in lysis buffer without NaCl and loaded on a mono Q column. Bound proteins were eluted with a linear gradient of NaCl in lysis buffer. Each fraction was analyzed by SDS-PAGE and FASN NADPH consumption assay. The fractions containing FASN were pooled and concentrated to 2-3 mg/mL. Glycerol was added to 20%, and the protein was frozen in liquid N2 and stored at −80° C.
All chemicals were purchased from Sigma (St. Louis, Mo.). The procedures of NADPH consumption assay were similar to those described in Cox et al., PNAS 1983, 80:4233-4237. On a 96-well polypropylene microplate, dilution series (typical concentrations 60 nM-1.0 mM) of test compounds were prepared in DMSO, of which 4.0 μL each was transferred to a black polystyrene assay microplate and mixed with 36 μL FASN assay buffer (50 mM potassium phosphate, pH 7.0, 1.0 mM EDTA, 0.01% NP-40) plus 5.0 mM fresh DTT. FASN protein (40 μL 150 nM FASN) was added per well, and the microplate was incubated at 37° C. for 30 min. Enzyme activity measurement was initiated by addition of 20 μL 5× substrate mixture to final concentrations of 60 nM FASN, 2.4 nM-40 μM compound, 0.2 mM NADPH, 50 μM butyryl-CoA, 0.5 mM malonyl-CoA in 100 μL assay buffer plus 5.0 mM DTT and 4.0% DMSO. NADPH consumption was monitored kinetically by fluorescence (λEx=340 nm, λEm=460 nm) on an EnVision 2100 multilabel plate reader (Perkin Elmer, Waltham, Mass.). FASN enzyme activity (slope) in the presence of 4% DMSO was used as maximum control, whereas background (minimum control) was measured by omission of malonyl-CoA in the substrate mixture. Inhibition curves were fitted by a logistic function to yield IC50 values:
Compounds were assayed as inhibitors of human FASN using the above-described FASN Scintillation Proximity Flashplate Assay (IC50; nM) or FASN NADPH Consumption Assay (*) (IC50; nM). The corresponding activity of the isolated compound is also provided along with the measured mass (ES^+).

T1 sequence (P49327 whole entry): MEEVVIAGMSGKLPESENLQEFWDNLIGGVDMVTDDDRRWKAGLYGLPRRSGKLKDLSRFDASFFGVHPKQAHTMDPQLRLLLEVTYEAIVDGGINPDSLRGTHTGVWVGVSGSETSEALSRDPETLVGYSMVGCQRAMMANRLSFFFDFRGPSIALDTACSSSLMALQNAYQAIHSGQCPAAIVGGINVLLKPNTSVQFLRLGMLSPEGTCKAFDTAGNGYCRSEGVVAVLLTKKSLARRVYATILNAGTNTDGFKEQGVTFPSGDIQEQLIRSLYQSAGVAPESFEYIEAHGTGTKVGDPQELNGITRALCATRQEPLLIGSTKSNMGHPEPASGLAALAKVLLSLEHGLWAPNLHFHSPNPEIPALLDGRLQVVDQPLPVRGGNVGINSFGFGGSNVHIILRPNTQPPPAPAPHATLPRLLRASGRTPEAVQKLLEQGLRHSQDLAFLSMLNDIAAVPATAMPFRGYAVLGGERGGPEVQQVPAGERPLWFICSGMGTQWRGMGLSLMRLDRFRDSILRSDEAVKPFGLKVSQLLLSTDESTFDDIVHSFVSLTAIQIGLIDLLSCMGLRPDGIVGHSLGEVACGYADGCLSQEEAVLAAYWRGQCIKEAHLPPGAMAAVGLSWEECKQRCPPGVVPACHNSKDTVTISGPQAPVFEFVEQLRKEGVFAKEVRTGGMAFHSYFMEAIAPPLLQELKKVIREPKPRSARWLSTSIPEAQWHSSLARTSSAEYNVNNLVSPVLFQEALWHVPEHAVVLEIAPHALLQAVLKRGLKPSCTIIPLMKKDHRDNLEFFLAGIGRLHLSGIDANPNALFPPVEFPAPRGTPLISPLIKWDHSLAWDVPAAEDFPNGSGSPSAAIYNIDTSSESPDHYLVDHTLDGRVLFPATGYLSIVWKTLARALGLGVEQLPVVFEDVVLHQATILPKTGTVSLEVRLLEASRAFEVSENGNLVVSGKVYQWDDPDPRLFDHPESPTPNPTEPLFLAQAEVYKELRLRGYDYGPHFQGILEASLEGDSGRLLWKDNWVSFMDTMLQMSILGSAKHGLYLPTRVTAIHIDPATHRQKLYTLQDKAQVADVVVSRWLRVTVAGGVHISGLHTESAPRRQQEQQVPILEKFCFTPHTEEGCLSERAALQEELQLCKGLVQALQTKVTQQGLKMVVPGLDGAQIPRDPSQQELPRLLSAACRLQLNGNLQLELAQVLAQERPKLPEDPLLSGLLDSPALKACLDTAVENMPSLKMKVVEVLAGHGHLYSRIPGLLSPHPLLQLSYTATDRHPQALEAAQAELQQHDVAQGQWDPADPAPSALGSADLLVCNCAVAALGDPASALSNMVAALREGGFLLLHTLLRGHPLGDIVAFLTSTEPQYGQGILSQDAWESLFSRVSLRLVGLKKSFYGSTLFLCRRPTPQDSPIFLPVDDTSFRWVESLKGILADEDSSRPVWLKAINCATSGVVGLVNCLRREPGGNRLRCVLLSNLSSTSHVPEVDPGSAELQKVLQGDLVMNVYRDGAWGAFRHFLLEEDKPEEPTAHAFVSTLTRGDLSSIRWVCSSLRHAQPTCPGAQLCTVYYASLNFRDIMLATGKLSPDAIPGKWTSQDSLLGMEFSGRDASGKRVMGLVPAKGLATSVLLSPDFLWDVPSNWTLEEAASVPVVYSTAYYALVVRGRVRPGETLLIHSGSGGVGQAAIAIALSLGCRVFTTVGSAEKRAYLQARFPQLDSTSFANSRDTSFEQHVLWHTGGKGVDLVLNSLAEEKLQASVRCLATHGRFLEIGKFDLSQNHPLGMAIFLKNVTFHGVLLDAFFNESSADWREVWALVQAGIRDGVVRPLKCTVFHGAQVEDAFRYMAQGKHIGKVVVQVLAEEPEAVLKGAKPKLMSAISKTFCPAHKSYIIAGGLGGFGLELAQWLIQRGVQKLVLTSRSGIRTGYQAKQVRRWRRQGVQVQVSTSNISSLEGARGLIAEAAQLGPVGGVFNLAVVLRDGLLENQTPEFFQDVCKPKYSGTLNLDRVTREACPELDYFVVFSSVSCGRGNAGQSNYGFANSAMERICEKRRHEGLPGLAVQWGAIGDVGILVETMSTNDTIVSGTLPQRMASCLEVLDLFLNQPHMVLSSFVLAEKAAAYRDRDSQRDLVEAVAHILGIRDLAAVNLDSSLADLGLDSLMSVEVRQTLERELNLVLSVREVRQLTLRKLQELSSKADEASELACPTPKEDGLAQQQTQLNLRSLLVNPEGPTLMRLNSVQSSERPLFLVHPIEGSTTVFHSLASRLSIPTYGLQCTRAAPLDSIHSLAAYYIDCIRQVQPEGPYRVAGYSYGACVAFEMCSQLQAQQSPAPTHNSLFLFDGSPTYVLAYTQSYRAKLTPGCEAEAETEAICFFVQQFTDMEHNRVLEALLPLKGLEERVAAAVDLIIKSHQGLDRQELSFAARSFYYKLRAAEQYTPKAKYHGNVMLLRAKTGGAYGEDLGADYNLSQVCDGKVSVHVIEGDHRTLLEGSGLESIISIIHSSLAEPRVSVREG

SMILES	IC50
CC(C)(C)OC(=O)N[C@@H]1CCN(C(=O)n2nnn(-c3c(Cl)cccc3Cl)c2=O)C1	1000 to 10000 nM
CC(C)(C)OC(=O)N[C@H]1CCN(C(=O)n2nnn(-c3c(Cl)cccc3Cl)c2=O)C1	> 10000 nM
O=C(N1CCCC1)n1nnn(-c2c(Cl)cccc2Cl)c1=O	> 10000 nM
CC(=O)N[C@H]1CCN(C(=O)n2nnn(-c3c(Cl)cccc3Cl)c2=O)C1	> 10000 nM
CC(=O)N[C@@H]1CCN(C(=O)n2nnn(-c3c(Cl)cccc3Cl)c2=O)C1	> 10000 nM
CN(C)C(=O)[C@@H]1CCCN1C(=O)n1nnn(-c2c(Cl)cccc2Cl)c1=O	> 10000 nM
CNC(=O)[C@@H]1CCCN1C(=O)n1nnn(-c2c(Cl)cccc2Cl)c1=O	> 10000 nM
CC(C)(C)OC(=O)C1CCN(C(=O)n2nnn(-c3c(Cl)cccc3Cl)c2=O)CC1	1000 to 10000 nM
O=C(C1CCCN(C(=O)n2nnn(-c3c(Cl)cccc3Cl)c2=O)C1)N1CCCC1 (stereo not drawn)	> 10000 nM
CC(C)(C)OC(=O)NC1CCCN(C(=O)n2nnn(-c3c(Cl)cccc3Cl)c2=O)C1 (stereo not drawn)	1000 to 10000 nM
CCN(CC)C(=O)C1CCCN(C(=O)n2nnn(-c3c(Cl)cccc3Cl)c2=O)C1 (stereo not drawn)	1000 to 10000 nM
CN(C)C1CCCN(C(=O)n2nnn(-c3c(Cl)cccc3Cl)c2=O)C1 (stereo not drawn)	1000 to 10000 nM
CC(=O)NC1CCCN(C(=O)n2nnn(-c3c(Cl)cccc3Cl)c2=O)C1 (stereo not drawn)	> 10000 nM
O=C(C1CCCN(C(=O)n2nnn(-c3c(Cl)cccc3Cl)c2=O)C1)N1CCCCC1 (stereo not drawn)	1000 to 10000 nM
O=C(O)C1CCN(C(=O)n2nnn(-c3c(Cl)cccc3Cl)c2=O)CC1	> 10000 nM
O=C(N1CCCCC1)n1nnn(-c2c(Cl)cccc2Cl)c1=O	1000 to 10000 nM
CS(=O)(=O)NC1CCCN(C(=O)n2nnn(-c3c(Cl)cccc3Cl)c2=O)C1 (stereo not drawn)	> 10000 nM
CCNC(=O)NC1CCCN(C(=O)n2nnn(-c3c(Cl)cccc3Cl)c2=O)C1 (stereo not drawn)	> 10000 nM
O=C(N1CCOCC1)n1nnn(-c2ccccc2Cl)c1=O	> 10000 nM
Cc1ccccc1C#Cc1cccc(F)c1-n1nnn(C(=O)N2CCCC3CCCCC32)c1=O (stereo not drawn)	60 to 250 nM
O=C(N1CCCC2CCCCC21)n1nnn(-c2c(F)cccc2Br)c1=O (stereo not drawn)	60 to 250 nM
O=C(N1CCCC2CCCCC21)n1nnn(-c2c(F)cccc2F)c1=O (stereo not drawn)	60 to 250 nM
O=C(N1CCCC2CCCCC21)n1nnn(-c2ccccc2Oc2ccccc2)c1=O (stereo not drawn)	250 to 1000 nM

SMILES	IC50
O=C(N1CCCC2CCCCC21)n1nnn(-c2c(Cl)cccc2Cl)c1=O (stereo not drawn)	250 to 1000 nM
O=C(N1CC[C@](O)(c2ccccc2)[C@@H]2CCCC[C@H]21)n1nnn(-c2c(F)cccc2F)c1=O	1000 to 10000 nM
C[C@@H]1CC(=O)[C@@H]2CCCC[C@H]2N1C(=O)n1nnn(-c2c(F)cccc2F)c1=O	1000 to 10000 nM
O=C(N1CCc2ccccc2C1)n1nnn(-c2c(F)cccc2F)c1=O	250 to 1000 nM
O=C(O)c1ccc2c(c1)CCCN2C(=O)n1nnn(-c2ccccc2)c1=O	60 to 250 nM
O=C(N1CCCc2ccccc21)n1nnn(-c2ccccc2Oc2ccccc2)c1=O	60 to 250 nM
COC(=O)C1CCc2ccccc2N1C(=O)n1nnn(-c2ccccc2Oc2ccccc2)c1=O (stereo not drawn)	250 to 1000 nM
Cc1cccc2c1N(C(=O)n1nnn(-c3c(F)cccc3F)c1=O)CCC2	60 to 250 nM
O=C(N1CCCc2cc([N+](=O)[O-])ccc21)n1nnn(-c2c(F)cccc2F)c1=O	1000 to 10000 nM
COc1ccc2c(c1)CCCN2C(=O)n1nnn(-c2c(F)cccc2F)c1=O	60 to 250 nM
Cc1ccc2c(c1)CCCN2C(=O)n1nnn(-c2c(F)cccc2F)c1=O	60 to 250 nM
O=C(N1CCCc2ccccc21)n1nnn(-c2c(F)cccc2F)c1=O	60 to 250 nM
CC(C)(C)OC(=O)Nc1ccc2c(c1)CCCN2C(=O)n1nnn(-c2c(F)cccc2F)c1=O	60 to 250 nM
O=C(N1CCCc2cc(Br)ccc21)n1nnn(-c2c(F)cccc2F)c1=O	60 to 250 nM
O=CNc1ccc2c(c1)CCCN2C(=O)n1nnn(-c2c(F)cccc2F)c1=O	60 to 250 nM
Nc1ccc2c(c1)CCCN2C(=O)n1nnn(-c2c(F)cccc2F)c1=O	60 to 250 nM
O=CNc1cccc2c1CCCN2C(=O)n1nnn(-c2c(F)cccc2F)c1=O	60 to 250 nM
COC(=O)C1CCc2ccccc2N1C(=O)n1nnn(-c2c(F)cccc2F)c1=O (stereo not drawn)	60 to 250 nM
CC1CCc2ccccc2N1C(=O)n1nnn(-c2c(F)cccc2F)c1=O (stereo not drawn)	60 to 250 nM
CC(C)(C)OC(=O)Nc1cccc2c1CCCN2C(=O)n1nnn(-c2c(F)cccc2F)c1=O	60 to 250 nM
O=C(N1CCCc2ccc(C(F)(F)F)cc21)n1nnn(-c2c(F)cccc2F)c1=O	250 to 1000 nM
Nc1cccc2c1CCCN2C(=O)n1nnn(-c2c(F)cccc2F)c1=O	60 to 250 nM
Cc1ccccc1C#Cc1cccc(F)c1-n1nnn(C(=O)N2CCCCc3ccccc32)c1=O	60 to 250 nM

SMILES	IC50
Cc1ccccc1CCc1cccc(F)c1-n1nnn(C(=O)N2CCCCc3ccccc32)c1=O	60 to 250 nM
O=C(N1CCCCc2ccccc21)n1nnn(-c2c(F)cccc2Br)c1=O	250 to 1000 nM
CCOC(=O)N1CCC(N(CC)C(=O)n2nnn(-c3c(Cl)cccc3Cl)c2=O)CC1	1000 to 10000 nM
CCN(C(=O)n1nnn(-c2c(Cl)cccc2Cl)c1=O)C1CCN(C(=O)OC(C)(C)C)CC1	1000 to 10000 nM
CCN(C(=O)n1nnn(-c2cccc(Cl)c2)c1=O)C1CCCCC1	> 10000 nM
CCN(C(=O)n1nnn(-c2cccc(C(F)(F)F)c2)c1=O)C1CCCCC1	> 10000 nM
CCN(C(=O)n1nnn(-c2cccc(C#N)c2)c1=O)C1CCCCC1	> 10000 nM
O=C(N(O)C1CCCCC1)n1nnn(-c2c(F)cccc2F)c1=O	60 to 250 nM
CCN(C(=O)n1nnn(-c2c(F)cccc2F)c1=O)C1CCCCC1	250 to 1000 nM
N#CCCN(C(=O)n1nnn(-c2c(Cl)cccc2Cl)c1=O)C1CCCCC1	1000 to 10000 nM
CCN(C(=O)n1nnn(-c2c(Cl)cccc2Cl)c1=O)C1CCCCC1	1000 to 10000 nM
CS(=O)(=O)NCCCN(C(=O)n1nnn(-c2c(Cl)cccc2Cl)c1=O)C1CCCCC1	1000 to 10000 nM
CC(C)(C)OC(=O)NCCN(C(=O)n1nnn(-c2c(Cl)cccc2Cl)c1=O)C1CCCCC1	> 10000 nM
CCN(C(=O)n1nnn(-c2c(Cl)cccc2Cl)c1=O)C1CCCC(C(=O)N2CCOCC2)C1 (stereo not drawn)	1000 to 10000 nM
CCN(C(=O)n1nnn(-c2c(Cl)cccc2Cl)c1=O)C1CCC(C(=O)OCc2ccc(OC)cc2)CC1 (stereo not drawn)	> 10000 nM
CCN(C(=O)n1nnn(-c2c(Cl)cccc2Cl)c1=O)C1CCCC(C(=O)OCc2ccccc2)C1 (stereo not drawn)	1000 to 10000 nM
CCN(C(=O)n1nnn(-c2c(Cl)cccc2Cl)c1=O)C1CCCC(C(=O)N2CCN(C)CC2)C1 (stereo not drawn)	1000 to 10000 nM
CCN(C(=O)n1nnn(-c2c(Cl)cccc2Cl)c1=O)C1CCC(NC(=O)OC(C)(C)C)CC1 (stereo not drawn)	> 10000 nM
O=C(NCCCN(C(=O)n1nnn(-c2c(Cl)cccc2Cl)c1=O)C1CCCCC1)c1cccnc1	1000 to 10000 nM
CCN(C(=O)n1nnn(-c2c(Cl)cccc2Cl)c1=O)C1CCC(C(=O)O)CC1 (stereo not drawn)	1000 to 10000 nM
CCN(C(=O)n1nnn(-c2c(Cl)cccc2Cl)c1=O)C1CCCC(C(=O)NC)C1 (stereo not drawn)	1000 to 10000 nM
CCN(C(=O)n1nnn(-c2c(Cl)cccc2Cl)c1=O)C1CCC(C(=O)N2CCOCC2)CC1 (stereo not drawn)	> 10000 nM
CC(C)(C)OC(=O)NCCCN(C(=O)n1nnn(-c2c(Cl)cccc2Cl)c1=O)C1CCCCC1	1000 to 10000 nM
